PubChem BioAssay (NCI)
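Exposure lasted 48 hours, with cells grown in 96-well plates and compounds tested at five concentrations. GI50 marks 50% less growth. TGI: total growth inhibition.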 Where a SMILES comes first, the peptide text is derived from it. [ ]: non-standard residue; d: D form. Phe(4-Cl) = N[CH](Cc1ccc(Cl)cc1)C(=O)O

How the values were obtained:
Test in all cases: NCI anticancer screen, dose series, 48 h
[1] = tested on: OVCAR-4 ovarian
[2] = tested on: TK-10 renal
[3] = tested on: NCI-H522 lung
[4] = tested on: IGROV1 ovarian
[5] = tested on: CAKI-1 renal
[6] = tested on: U251 CNS
[7] = tested on: SNB-19 CNS
[8] = tested on: UO-31 renal
[9] = tested on: SN12C renal
[10] = tested on: DU-145 prostate

SMILES: Nc1ccc(/C=C/c2ccnc3ccccc23)cc1
- TGI [1]: > 100 µM
- TGI [2]: 57.7 µM
- TGI [3]: 30.7 µM
- TGI [4]: > 100 µM
- TGI [5]: 63.9 µM
- TGI [6]: 59.4 µM
- TGI [7]: 79.3 µM
- TGI [8]: 47.5 µM

SMILES: CC(=O)[CH-]C(=O)c1ccccc1.CC(=O)[CH-]C(=O)c1ccccc1.O=C([O-])c1ccc([O-])cc1.O=C([O-])c1ccc([O-])cc1.[Ti+4]
- GI50 [9]: 51.3 µM
- TGI [9]: > 100 µM
- GI50 [1]: 57.1 µM
- TGI [1]: > 100 µM
- GI50 [3]: 22.8 µM
- TGI [3]: 70.9 µM
- GI50 [4]: 84.3 µM
- TGI [4]: > 100 µM
- GI50 [5]: 35.6 µM
- TGI [5]: > 100 µM
- GI50 [6]: 45 µM
- TGI [6]: > 100 µM
- GI50 [7]: 52.3 µM
- TGI [7]: > 100 µM
- GI50 [8]: 23.1 µM
- TGI [8]: 76.4 µM

SMILES: CCCCCCCCCCCCCC1CCC(CC)N1 (configuration not stated)
- TGI [9]: 23.4 µM
- TGI [1]: 31.2 µM
- TGI [2]: 32 µM
- TGI [3]: 32.6 µM
- TGI [4]: 36.1 µM
- TGI [5]: 29.6 µM
- TGI [6]: 18 µM
- TGI [7]: 30.7 µM
- TGI [8]: 27.4 µM

SMILES: CC(C)(C)OC(=O)Cc1ccc2c(ccn2Cc2ccccc2)c1
- TGI [9]: > 100 µM
- TGI [1]: > 100 µM
- TGI [2]: > 100 µM
- TGI [3]: > 100 µM
- TGI [4]: > 100 µM
- TGI [5]: > 100 µM
- TGI [6]: > 100 µM
- TGI [7]: > 100 µM
- TGI [8]: > 100 µM

SMILES: NC(N)=NCCCn1c2c(c3ccccc3c1=O)C(=O)c1ccccc1-2
- GI50 [9]: 0.229 µM
- TGI [9]: 0.572 µM
- GI50 [1]: 55.6 µM
- TGI [1]: > 100 µM
- GI50 [2]: 29.5 µM
- TGI [2]: 98.3 µM
- GI50 [3]: 2.45 µM
- TGI [3]: 11.1 µM
- GI50 [4]: 10.6 µM
- TGI [4]: 22.6 µM
- GI50 [5]: 20.3 µM
- TGI [5]: 49 µM
- GI50 [6]: 0.223 µM
- TGI [6]: 0.637 µM
- GI50 [7]: 18.5 µM
- TGI [7]: 98.2 µM
- GI50 [10]: 7.59 µM
- TGI [10]: 22.9 µM

SMILES: CC(C)N(C(=O)C12CC3CC(CC(C3)C1)C2)C(C)C
- TGI [9]: > 50 µM
- TGI [1]: > 50 µM
- TGI [2]: > 50 µM
- TGI [3]: > 50 µM
- TGI [4]: > 50 µM
- TGI [5]: > 50 µM
- TGI [6]: > 50 µM
- TGI [7]: > 50 µM
- TGI [8]: > 50 µM

SMILES: CC1(C)C2CC(O)C1(C)CC2=O (configuration not stated)
- TGI [9]: > 100 µM
- TGI [1]: > 100 µM
- TGI [2]: > 100 µM
- TGI [3]: > 100 µM
- TGI [4]: > 100 µM
- TGI [6]: > 100 µM
- TGI [7]: > 100 µM
- TGI [8]: > 100 µM
- TGI [10]: > 100 µM

SMILES: CC[O-].CC[O-].O=C1c2ccccc2C(=O)c2c(O)ccc([O-])c21.O=C1c2ccccc2C(=O)c2c(O)ccc([O-])c21.[Ti+4]
- TGI [9]: > 100 µM
- TGI [1]: > 100 µM
- TGI [2]: > 100 µM
- TGI [3]: > 100 µM
- TGI [4]: > 100 µM
- TGI [5]: > 100 µM
- TGI [7]: > 100 µM
- TGI [8]: > 100 µM

SMILES: O=S(=O)(/N=S(/Nc1ccccc1)C(Cl)Cl)c1ccccc1 (configuration not stated)
- TGI [9]: > 100 µM
- TGI [1]: > 100 µM
- TGI [2]: > 100 µM
- TGI [4]: > 100 µM
- TGI [6]: > 100 µM
- TGI [7]: > 100 µM
- TGI [8]: > 100 µM
- TGI [10]: > 100 µM

SMILES: N#Cc1nc(C2OC(COC(=O)c3ccccc3)C(OC(=O)c3ccccc3)C2OC(=O)c2ccccc2)oc1N (configuration not stated)
- TGI [9]: > 100 µM
- TGI [1]: > 100 µM
- TGI [2]: > 100 µM
- TGI [3]: 65.2 µM
- TGI [4]: > 100 µM
- TGI [5]: > 100 µM
- TGI [6]: > 100 µM
- TGI [7]: > 100 µM
- TGI [8]: 66.8 µM

SMILES: CC(O)C(NC(=O)C(Cc1ccccc1)NC(=O)C(NC(=O)C(CCCCN)NC(=O)C(Cc1c[nH]c2ccccc12)NC(=O)C(Cc1ccc(O)cc1)NC(=O)C(Cc1ccc(Cl)cc1)NC(=O)C(N)Cc1ccccc1)C(C)O)C(N)=O (configuration not stated) (H-F[Phe(4-Cl)]YWKTFT-NH2; configuration not given here)
- TGI [9]: > 100 µM
- TGI [1]: 58.7 µM
- TGI [4]: 44.8 µM
- TGI [5]: 39.5 µM
- TGI [6]: 35.8 µM
- TGI [7]: 34.1 µM
- TGI [8]: 37.5 µM

SMILES: O=C(O)CN(c1ccccc1)S(=O)(=O)c1ccccc1[N+](=O)[O-]
- TGI [9]: > 100 µM
- TGI [1]: > 100 µM
- TGI [2]: > 100 µM
- TGI [3]: > 100 µM
- TGI [4]: > 100 µM
- TGI [5]: > 100 µM
- TGI [6]: > 100 µM
- TGI [7]: > 100 µM
- TGI [8]: > 100 µM

SMILES: Cc1ccc(S(=O)(=O)n2c(-c3ccccc3)c(-c3ccccc3)c3ccccc32)cc1
- TGI [9]: > 100 µM
- TGI [1]: > 100 µM
- TGI [2]: > 100 µM
- TGI [3]: > 100 µM
- TGI [4]: > 100 µM
- TGI [6]: > 100 µM
- TGI [7]: > 100 µM
- TGI [8]: > 100 µM

SMILES: COc1ccc2c(c1)CCC1C3(CCCC21C)OCCO3 (configuration not stated)
- TGI [9]: 30.5 µM
- TGI [1]: > 100 µM
- TGI [2]: > 100 µM
- TGI [3]: 37.4 µM
- TGI [4]: 79.4 µM
- TGI [5]: > 100 µM
- TGI [6]: 29.4 µM
- TGI [7]: > 100 µM
- TGI [8]: 31 µM

SMILES: O=C1c2ccccc2-c2c1c1ccccc1c(=O)n2Cc1ccccc1
- TGI [9]: > 100 µM
- TGI [1]: 42.3 µM
- TGI [2]: > 100 µM
- TGI [3]: > 100 µM
- TGI [4]: > 100 µM
- TGI [5]: > 100 µM
- TGI [6]: > 100 µM
- TGI [8]: > 100 µM
- TGI [10]: > 100 µM

SMILES: Cc1ccc(N(C(=O)CC(=O)NN)C(=O)c2ccccc2Cl)cc1
- TGI [9]: > 100 µM
- TGI [1]: > 100 µM
- TGI [3]: > 100 µM
- TGI [4]: > 100 µM
- TGI [5]: > 100 µM
- TGI [6]: > 100 µM
- TGI [7]: > 100 µM
- TGI [8]: > 100 µM

SMILES: Cc1cc(C)nc(NS(=O)(=O)c2ccc(Nc3c4ccccc4nc4c(C(=O)Nc5ccc(S(=O)(=O)Nc6cc(C)on6)cc5)cccc34)cc2)n1
- TGI [9]: 66.5 µM
- TGI [1]: 65.5 µM
- TGI [2]: 96 µM
- TGI [3]: 29 µM
- TGI [4]: 77.1 µM
- TGI [5]: 46.3 µM
- TGI [6]: 41.4 µM
- TGI [7]: 52.1 µM
- TGI [8]: 63.2 µM

SMILES: Cc1ccc(Nc2nc3c(s2)C(=O)c2ccccc2C3=O)c(C)c1
- TGI [9]: 31.1 µM
- TGI [1]: 25 µM
- TGI [2]: 36.6 µM
- TGI [3]: 4.66 µM
- TGI [4]: 33.1 µM
- TGI [5]: 29 µM
- TGI [6]: 42.5 µM
- TGI [7]: 27.7 µM
- TGI [8]: 27.3 µM

SMILES: CCOC(=O)CN=c1nc(SC)sc2c(C(=O)OCC)nc(Sc3ccccc3)n12
- TGI [9]: > 100 µM
- TGI [1]: > 100 µM
- TGI [2]: > 100 µM
- TGI [3]: 74.3 µM
- TGI [4]: > 100 µM
- TGI [5]: > 100 µM
- TGI [8]: > 100 µM

SMILES: COc1cc(OC(=O)c2c(O)cc(O)c(O)c2C)cc(C)c1C(=O)Oc1cc(C)c(C(=O)O)c(O)c1
- TGI [9]: > 100 µM
- TGI [1]: > 100 µM
- TGI [2]: > 100 µM
- TGI [3]: > 100 µM
- TGI [4]: > 100 µM
- TGI [5]: > 100 µM
- TGI [6]: > 100 µM
- TGI [8]: > 100 µM

SMILES: CCOC(=O)c1cc(/C(=N\O)c2cc(OC)c(OC)c(OC)c2)n2cc(C)cc(C)c12
- GI50 [9]: 3.86 µM
- TGI [9]: > 100 µM
- GI50 [1]: 1.95 µM
- TGI [1]: 5.1 µM
- GI50 [2]: 3.66 µM
- TGI [2]: 51.3 µM
- GI50 [4]: 3.21 µM
- TGI [4]: > 100 µM
- GI50 [5]: 2.36 µM
- TGI [5]: > 100 µM
- GI50 [6]: 2.64 µM
- TGI [6]: 9.32 µM
- GI50 [7]: 4.57 µM
- TGI [7]: > 100 µM
- GI50 [10]: 3.67 µM
- TGI [10]: > 100 µM
